Reference: patent publication US10034871B2, “Salts and compositions useful for treating disease” (REGENTS OF THE UNIVERSITY OF MINNESOTA, priority 2014, dated 2018)

What was measured:
kappa opioid receptors = target: T1, kappa opioid receptors (Mus musculus, UniProt P33534); assay: Tail-flick assay, antagonism of analgesia produced by selective kappa opioid agonists (U50488H, Bremazocine, U69593); assay type: in vivo, ICR-CD1 mice; conditions: mice, i.c.v.; for antagonism of the analgesia produced by selective kappa opioid agonists (% MPE): agonists U50488H, Bremazocine, U69593
T1 construct: from tissue; host or cells: living ICR-CD1 mice (central nervous system, i.c.v. dosing)
Experimental: (§1) The testing protocol involved the tail-flick assay. For the measurement of the tail-flick latency, ICR-CD1 mice, mice were held gently in one hand with the tail positioned in the apparatus (Tail Flick Analgesia Meter, Columbus Instruments, Columbus, Ohio) for radiant heat stimulus. The tail-flick response was elicited by applying radiant heat to the dorsal side of the tail. The intensity of the heat was set so that the mouse flicks its tail within 2 to 3 seconds. The test latency was measured before treatment of the agonist control, and again after the antagonist treatment at the time of peak agonist activity.
(§2) At least three groups of four to ten mice were used for each dose response curve. ED50 values with 95% confidence intervals (C.I.) were computed with GraphPad Prism 4 using nonlinear regression methods. […] Antinociception was quantified as the percent maximal possible effect (% MPE), which is calculated as: % MPE=(Test−Control/10−Control)×100. GNTI.2HCl or GNTI.2LA. The data for the dihydrochloride salt (Sigma GNTI2HCl) and the di-lipoic acid salt, GNTI.2LA (identified as WY-120) are shown in FIGS. 1 and 2. The data are expressed as bar graphs that indicate the % maximum possible effect (% MPE) of GNTI-.2HCl or GNTI.2LA in antagonizing the analgesia produced by selective kappa opioid agonists (U50488H, Bremazocine, U69593) or delta opioid agonists (DPDPE, DEL II) by the intracerebroventricular (i.c.v.) route of administration to mice.

[1] = target: T2, (Mus musculus, UniProt P32300); assay: Tail-flick assay, antagonism of analgesia produced by delta opioid agonists (DPDPE, DEL II); assay type: in vivo, ICR-CD1 mice; conditions: mice, i.c.v.
T2 construct: by the intracerebroventricular (i.c.v.) route of administration to mice; from tissue; host or cells: living ICR-CD1 mice (central nervous system, i.c.v. dosing)
Experimental: as §1
as §2, with “The data for the dihydrochloride salt (Sigma GNTI2HCl) and the di-lipoic acid salt, GNTI.2LA (identified as WY-120) are shown in FIGS. 1 and 2.” left out

[2] = test system: insulin-stimulated glucose disposal; conditions: 13 patients with type 2 diabetes, single intravenous infusion; cited from earlier work
insulin sensitivity [3] = conditions: 20 patients with type 2 diabetes, intravenous infusion for ten days, measured 24 hours after the last infusion; cited from earlier work
insulin sensitivity [4] = conditions: 72 patients with type 2 diabetes, oral administration, after four weeks of treatment; cited from earlier work

T1 sequence (P33534 whole entry): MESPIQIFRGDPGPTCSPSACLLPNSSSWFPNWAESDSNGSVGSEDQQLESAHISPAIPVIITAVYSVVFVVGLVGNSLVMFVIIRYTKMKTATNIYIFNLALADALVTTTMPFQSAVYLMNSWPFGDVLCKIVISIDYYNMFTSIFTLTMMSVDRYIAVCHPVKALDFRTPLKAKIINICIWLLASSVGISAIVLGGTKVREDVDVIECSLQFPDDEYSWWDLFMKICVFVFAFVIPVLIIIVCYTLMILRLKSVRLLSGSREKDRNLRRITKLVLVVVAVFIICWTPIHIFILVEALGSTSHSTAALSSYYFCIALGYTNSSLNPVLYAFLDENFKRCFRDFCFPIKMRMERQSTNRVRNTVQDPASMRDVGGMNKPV
T2 sequence (P32300 whole entry): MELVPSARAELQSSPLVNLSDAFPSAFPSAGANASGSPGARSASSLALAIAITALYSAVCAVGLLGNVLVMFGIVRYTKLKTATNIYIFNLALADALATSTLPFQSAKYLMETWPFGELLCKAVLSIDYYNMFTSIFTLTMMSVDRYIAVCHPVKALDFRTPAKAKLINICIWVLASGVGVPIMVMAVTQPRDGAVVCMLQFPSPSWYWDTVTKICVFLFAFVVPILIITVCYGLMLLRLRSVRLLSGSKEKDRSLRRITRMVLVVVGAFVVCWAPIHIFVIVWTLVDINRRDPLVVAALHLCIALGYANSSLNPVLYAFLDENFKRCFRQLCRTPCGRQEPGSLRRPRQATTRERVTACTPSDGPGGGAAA

Compound	kappa opioid antagonist selectivity compared with GNTI.2HCl (kappa opioid receptors; kappa versus delta agonists)	antagonism of the analgesia produced by selective kappa opioid agonists (% MPE) (kappa opioid receptors)	antagonism of the analgesia produced by delta opioid agonists (% MPE) [1]	improvement of insulin-stimulated glucose disposal compared to a placebo infusion [2] [%]	insulin sensitivity (insulin sensitivity [3])	improvement of insulin sensitivity (insulin sensitivity [4]) [%]
N=C(N)Nc1ccc2[nH]c3c(c2c1)C[C@@]1(O)C2Cc4ccc(O)c5c4[C@@]1(CCN2CC1CC1)[C@H]3O5 [GNTI.2LA, GNTI Dilipoate]	not significantly different	selectively antagonize the different kappa agonists	not significantly affected			
Cl.Cl.NC(N)=Nc1ccc2[nH]c3c(c2c1)C[C@@]1(O)[C@H]2Cc4ccc(O)c5c4[C@@]1(CCN2CC1CC1)[C@H]3O5 [GNTI.2HCI]		selectively antagonize the different kappa agonists	not significantly affected			
O=C(O)CCCCC1CCSS1 (centres unmarked) [LA, 1,2-dithiolane-3-pentanoic acid]				50	improved insulin sensitivity	25
